Assays:
[1] = biological target: human histamine H3 receptor (hH3R) (Homo sapiens, UniProt Q9Y5N1); assay: [3H]-Nα-methylhistamine competition binding; settings: for pK i trans ± SEM: kept in dark, >99 % trans
rat H3R = rat H3R (Rattus norvegicus, UniProt Q9QYN8); assay: receptor binding
mouse H3R = mouse H3R (Mus musculus, UniProt P58406); assay: receptor binding
mouse H3R, sequence (P58406 whole entry): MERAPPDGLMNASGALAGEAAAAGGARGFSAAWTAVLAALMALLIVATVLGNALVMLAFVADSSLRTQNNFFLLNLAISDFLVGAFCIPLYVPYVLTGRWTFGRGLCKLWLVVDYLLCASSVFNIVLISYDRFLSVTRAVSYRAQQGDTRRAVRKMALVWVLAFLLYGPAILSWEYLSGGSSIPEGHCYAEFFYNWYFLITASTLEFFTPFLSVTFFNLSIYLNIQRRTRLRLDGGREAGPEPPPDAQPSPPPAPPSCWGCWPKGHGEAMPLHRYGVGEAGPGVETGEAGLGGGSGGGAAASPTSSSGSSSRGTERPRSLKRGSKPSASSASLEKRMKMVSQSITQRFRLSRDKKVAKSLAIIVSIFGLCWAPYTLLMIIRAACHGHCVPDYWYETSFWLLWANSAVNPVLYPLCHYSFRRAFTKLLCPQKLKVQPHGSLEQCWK

human histamine H3 receptor (hH3R), sequence (Q9Y5N1 whole entry): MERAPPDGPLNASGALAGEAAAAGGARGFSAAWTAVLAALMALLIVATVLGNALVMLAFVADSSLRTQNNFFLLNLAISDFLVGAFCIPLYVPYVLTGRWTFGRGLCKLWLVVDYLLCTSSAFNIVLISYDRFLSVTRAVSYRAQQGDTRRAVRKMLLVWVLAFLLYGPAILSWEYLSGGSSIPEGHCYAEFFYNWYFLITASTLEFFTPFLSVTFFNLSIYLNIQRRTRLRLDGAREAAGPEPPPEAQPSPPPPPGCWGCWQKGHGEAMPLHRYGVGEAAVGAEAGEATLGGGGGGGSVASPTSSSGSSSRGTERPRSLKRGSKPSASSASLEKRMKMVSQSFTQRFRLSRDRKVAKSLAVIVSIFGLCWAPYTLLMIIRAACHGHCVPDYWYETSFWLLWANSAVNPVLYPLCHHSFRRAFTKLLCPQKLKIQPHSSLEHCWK
rat H3R, sequence (Q9QYN8 whole entry): as the sequence (P58406 whole entry) above, with A15T, T286A, G290A, H387R, V389I counted along it

Compound | Ki [1] [nM] | further results
c1ccc(/N=N\c2cccc(Cc3c[nH]cn3)c2)cc1 [compound 65, cis-65 (PSS cis)] | 32.4 | pKi (rat H3R; PSS cis): high nM (trans) to low μM (PSS cis) binding affinities for both mouse and rat; pKi (mouse H3R; PSS cis): high nM (trans) to low μM (PSS cis) binding affinities for both mouse and rat
c1ccc(/N=N/c2cccc(Cc3c[nH]cn3)c2)cc1 [compound 65, trans-65] | 3.8 | pKi (rat H3R; trans): high nM (trans) to low μM (PSS cis) binding affinities for both mouse and rat; pKi (mouse H3R; trans): high nM (trans) to low μM (PSS cis) binding affinities for both mouse and rat
Fc1ccccc1/N=N\c1cccc(Cc2c[nH]cn2)c1 [compound 66, 66 cis (PSS cis)] | 81.3 | –
Fc1ccccc1/N=N/c1cccc(Cc2c[nH]cn2)c1 [compound 66, 66 trans] | 5.25 | –
Fc1cccc(/N=N\c2cccc(Cc3c[nH]cn3)c2)c1 [compound 67, 67 cis (PSS cis)] | 38 | –
Fc1cccc(/N=N/c2cccc(Cc3c[nH]cn3)c2)c1 [compound 67, 67 trans] | 4.47 | –
Fc1ccc(/N=N\c2cccc(Cc3c[nH]cn3)c2)cc1 [compound 68, 68 cis (PSS cis)] | 309 | –
Fc1ccc(/N=N/c2cccc(Cc3c[nH]cn3)c2)cc1 [compound 68, 68 trans] | 20.4 | –
Fc1cccc(F)c1/N=N\c1cccc(Cc2c[nH]cn2)c1 [compound 69, 69 cis (PSS cis)] | 55 | –
Fc1cccc(F)c1/N=N/c1cccc(Cc2c[nH]cn2)c1 [compound 69, 69 trans] | 10 | –
Clc1ccccc1/N=N\c1cccc(Cc2c[nH]cn2)c1 [compound 70, 70 cis (PSS cis)] | 141 | –
Clc1ccccc1/N=N/c1cccc(Cc2c[nH]cn2)c1 [compound 70, 70 trans] | 13.8 | –
Clc1ccc(/N=N\c2cccc(Cc3c[nH]cn3)c2)cc1 [compound 71, 71 cis (PSS cis)] | 1050 | –
Clc1ccc(/N=N/c2cccc(Cc3c[nH]cn3)c2)cc1 [compound 71, 71 trans] | 174 | –
Cc1c(Cc2c[nH]cn2)cccc1/N=N\c1ccccc1 [compound 72, 72 cis (PSS cis)] | 3550 | –
Cc1c(Cc2c[nH]cn2)cccc1/N=N/c1ccccc1 [compound 72, 72 trans] | 2690 | –
Cc1ccc(/N=N/c2ccccc2)cc1Cc1c[nH]cn1 [compound 73, 73 trans] | – | pK i trans ± SEM [1]: 6.90±0.06
Cc1cc(Cc2c[nH]cn2)cc(/N=N\c2ccccc2)c1 [compound 74, 74 cis (PSS cis)] | 7410 | –
Cc1cc(Cc2c[nH]cn2)cc(/N=N/c2ccccc2)c1 [compound 74, 74 trans] | 1780 | –
Cc1ccc(Cc2c[nH]cn2)cc1/N=N/c1ccccc1 [compound 75, 75 trans] | – | pK i trans ± SEM [1]: 7.15±0.03
Cc1ccccc1/N=N\c1cccc(Cc2c[nH]cn2)c1 [compound 76, 76 cis (PSS cis)] | 398 | –
Cc1ccccc1/N=N/c1cccc(Cc2c[nH]cn2)c1 [compound 76, 76 trans] | 19.1 | –
Cc1cccc(/N=N\c2cccc(Cc3c[nH]cn3)c2)c1 [compound 77, 77 cis (PSS cis)] | 347 | –
Cc1cccc(/N=N/c2cccc(Cc3c[nH]cn3)c2)c1 [compound 77, 77 trans] | 40.7 | –
Cc1ccc(/N=N\c2cccc(Cc3c[nH]cn3)c2)cc1 [compound 78, 78 cis (PSS cis)] | 1950 | –
Cc1ccc(/N=N/c2cccc(Cc3c[nH]cn3)c2)cc1 [compound 78, 78 trans] | 1910 | –
Fc1ccc(/N=N/c2ccccc2)cc1Cc1c[nH]cn1 [compound 79, 79 trans] | – | pK i trans ± SEM [1]: 7.81±0.07
Fc1ccc(Cc2c[nH]cn2)cc1/N=N/c1ccccc1 [compound 80, 80 trans] | – | pK i trans ± SEM [1]: 8.39±0.06
